Data published in US9399649B2, “Compounds for treating spinal muscular atrophy” (PTC Therapeutics Inc., priority 2012, dated 2016).

What was measured:
[1] = test system: full length SMN2 minigene mRNA containing SMN2 exon 7; assay: SMN2 minigene mRNA splicing RT-qPCR assay in cultured cells; type: cell-based, human; settings: Homo sapiens, HEK293-H; HEK293H cells stably transfected with SMN2-A minigene, 24 hours, 7-point concentration curve; concentration giving 1.5-fold full length SMN2 mRNA vs vehicle; read-out: EC1.5x for production of full length SMN2 mRNA
Summary of the method: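 HEK293H cells stably carrying SMN2-A minigene treated 24 h (37 °C) with compound, 7-point 3.16-fold dilution, duplicates. Multiplex RT-qPCR on lysate with exon 7/luciferase primers and exon 7–8 junction probe (minigene-specific). Full-length transcript normalised to GAPDH by modified ΔΔCt, expressed relative to vehicle-treated cells.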

[2] = test system: Smn protein; assay: Smn protein assay in cultured cells (SMN HTRF); type: cell-based, human; settings: SMA patient fibroblast cells (GM03813), 48 hours; for maximum fold (Fold) increase of Smn protein: 7-point concentration data, relative to vehicle control; for EC1.5x for Smn protein expression: 7-point concentration curve, concentration producing 1.5 times Smn protein vs DMSO vehicle
Summary of the method: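 SMA patient fibroblasts, 5,000 per well in DMEM-10% FBS, exposed 48 h at 37° C. to a 7-point, 3.16-fold compound series in triplicate. RIPA lysates read by SMN HTRF (665/620 nm, overnight at room temperature); ΔF over blank expressed as fold of vehicle.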

melting point | Compound | EC (1.5-fold) [1] | maximum fold (Fold) increase of Smn protein [2] | EC1.5x for Smn protein expression [2]
115 to 117 °C | COc1ccc(F)cc1-c1cc2ccc(N3CCN[C@@H](C)C3)cc2c(=O)o1 [Cpd 48, 3-(5-fluoro-2-methoxyphenyl)-7-[(3S)-3-methylpiperazin-1-yl]-1H-isochromen-1-one] | 0.3 to 1 µM | * (A maximum fold increase of ≦1.2 is indicated by one star (*)) | 
170 to 173 °C | COc1c(F)cc(-c2cc3ccc(N4CCN[C@@H](C)C4)cc3c(=O)o2)cc1F [Cpd 49, 3-(3,5-difluoro-4-methoxyphenyl)-7-[(3S)-3-methylpiperazin-1-yl]-1H-isochromen-1-one] | 3 to 30 µM | * (A maximum fold increase of ≦1.2 is indicated by one star (*)) | 
231 °C (dec.) | COc1ccc(-c2cc3ccc(N4CCN[C@@H](C)C4)cc3c(=O)o2)c(OC)c1 [Cpd 50, 3-(2,4-dimethoxyphenyl)-7-[(3S)-3-methylpiperazin-1-yl]-1H-isochromen-1-one] | ≤ 0.1 µM | *** (a fold increase between >1.35 and ≦1.5 is indicated by three stars (***)) | ** (an EC1.5× between >1 μM, and ≦3 nM is indicated by two stars (**))
245 °C (dec.) | CCOc1ccc(-c2cc3ccc(N4CCNCC4)cc3c(=O)o2)cc1 [Cpd 51, 3-(4-ethoxyphenyl)-7-(piperazin-1-yl)-1H-isochromen-1-one] | 1 to 3 µM | * (A maximum fold increase of ≦1.2 is indicated by one star (*)) | 
206 to 208 °C | Cc1cc2cc(-c3cc4ccc(N5CCNCC5)cc4c(=O)o3)ccc2o1 [Cpd 52, 3-(2-methyl-1-benzofuran-5-yl)-7-(piperazin-1-yl)-1H-isochromen-1-one] | 0.1 to 0.3 µM | *** (a fold increase between >1.35 and ≦1.5 is indicated by three stars (***)) | * (An EC1.5× for Smn protein expression between >3 μM and <10 μM is indicated by one star (*))
132 to 134 °C | C[C@H]1CN(c2ccc3cc(-c4cccc(OC(F)F)c4)oc(=O)c3c2)CCN1 [Cpd 53, 3-[3-(difluoromethoxy)phenyl]-7-[(3S)-3-methylpiperazin-1-yl]-1H-isochromen-1-one] | 0.3 to 1 µM | ** (a fold increase between >1.2 and ≦1.35 is indicated by two stars (**)) | 
121 to 123 °C | C[C@H]1CN(c2ccc3cc(-c4ccc(OC(F)F)cc4)oc(=O)c3c2)CCN1 [Cpd 54, 3-[4-(difluoromethoxy)phenyl]-7-[(3S)-3-methylpiperazin-1-yl]-1H-isochromen-1-one] | 0.3 to 1 µM | * (A maximum fold increase of ≦1.2 is indicated by one star (*)) | 
340 to 342 °C | C[C@H]1CN(c2ccc3cc(-c4cn5ccsc5n4)oc(=O)c3c2)CCN1 [Cpd 55, 3-(imidazo[2,1-b][1,3]thiazol-6-yl)-7-[(3S)-3-methylpiperazin-1-yl]-1H-isochromen-1-one] | 0.1 to 0.3 µM | ** (a fold increase between >1.2 and ≦1.35 is indicated by two stars (**)) | 

Continued, compound first:

Compound | melting point | EC (1.5-fold) [1] | maximum fold (Fold) increase of Smn protein [2] | EC1.5x for Smn protein expression [2]
CN1CCN(c2ccc3cc(-c4cn5ccsc5n4)oc(=O)c3c2)CC1 [Cpd 33, 3-(imidazo[2,1-b][1,3]thiazol-6-yl)-7-(4-methylpiperazin-1-yl)-1H-isochromen-1-one] | 236 to 238 °C | 1 to 3 µM | * (A maximum fold increase of ≦1.2 is indicated by one star (*)) | 
C[C@H]1CN(c2ccc3cc(-c4ccccn4)oc(=O)c3c2)CCN1 [Cpd 34, 7-[(3S)-3-methylpiperazin-1-yl]-3-(pyridin-2-yl)-1H-isochromen-1-one] | 343 to 345 °C | 0.3 to 1 µM | *** (a fold increase between >1.35 and ≦1.5 is indicated by three stars (***)) | * (An EC1.5× for Smn protein expression between >3 μM and <10 μM is indicated by one star (*))
C[C@H]1CN(c2ccc3cc(-c4ccc5c(c4)OCCO5)oc(=O)c3c2)CCN1 [Cpd 35, 3-(2,3-dihydro-1,4-benzodioxin-6-yl)-7-[(3S)-3-methylpiperazin-1-yl]-1H-isochromen-1-one] | 175 to 177 °C | 0.3 to 1 µM | * (A maximum fold increase of ≦1.2 is indicated by one star (*)) | 
C[C@H]1CN(c2ccc3cc(-c4nc5ccccc5s4)oc(=O)c3c2)CCN1 [Cpd 36, 3-(1,3-benzothiazol-2-yl)-7-[(3S)-3-methylpiperazin-1-yl]-1H-isochromen-1-one] | 236 to 238 °C | 3 to 30 µM | * (A maximum fold increase of ≦1.2 is indicated by one star (*)) | 
C[C@@H]1CN(c2ccc3cc(-c4ccc5c(c4)OCCO5)oc(=O)c3c2)CCN1 [Cpd 37, 3-(2,3-dihydro-1,4-benzodioxin-6-yl)-7-[(3R)-3-methylpiperazin-1-yl]-1H-isochromen-1-one] | 175 to 177 °C | 1 to 3 µM | * (A maximum fold increase of ≦1.2 is indicated by one star (*)) | 
CN1CCN(c2ccc3cc(-c4ccc5c(c4)OCCO5)oc(=O)c3c2)CC1 [Cpd 38, 3-(2,3-dihydro-1,4-benzodioxin-6-yl)-7-(4-methylpiperazin-1-yl)-1H-isochromen-1-one] | 163 to 165 °C | 3 to 30 µM | * (A maximum fold increase of ≦1.2 is indicated by one star (*)) | 
C[C@@H]1CN(c2ccc3cc(-c4ccc5c(c4)OCCO5)oc(=O)c3c2)C[C@H](C)N1 [Cpd 39, 3-(2,3-dihydro-1,4-benzodioxin-6-yl)-7-[(3R,5S)-3,5-dimethylpiperazin-1-yl]-1H-isochromen-1-one] | 218 to 220 °C | 1 to 3 µM | * (A maximum fold increase of ≦1.2 is indicated by one star (*)) | 
C[C@H]1CN(c2ccc3cc(-c4ccc5c(c4)OCO5)oc(=O)c3c2)CCN1 [Cpd 40, 3-(1,3-benzodioxol-5-yl)-7-[(3S)-3-methylpiperazin-1-yl]-1H-isochromen-1-one] | 248 to 250 °C | 0.3 to 1 µM | * (A maximum fold increase of ≦1.2 is indicated by one star (*)) | 
C[C@H]1CN(c2ccc3cc(-c4ccc(O)c(O)c4)oc(=O)c3c2)CCN1 [Cpd 41, 3-(3,4-dihydroxyphenyl)-7-[(3S)-3-methylpiperazin-1-yl]-1H-isochromen-1-one] | 220 to 222 °C | 0.3 to 1 µM | *** (a fold increase between >1.35 and ≦1.5 is indicated by three stars (***)) | 
CCOc1ccc(-c2cc3ccc(N4CCN[C@@H](C)C4)cc3c(=O)o2)cc1 [Cpd 42, 3-(4-ethoxyphenyl)-7-[(3S)-3-methylpiperazin-1-yl]-1H-isochromen-1-one] | 239 to 240 °C | 0.1 to 0.3 µM | ** (a fold increase between >1.2 and ≦1.35 is indicated by two stars (**)) | 
COc1ccc(-c2cc3ccc(N4CCN[C@@H](C)C4)cc3c(=O)o2)cc1F [Cpd 43, 3-(3-fluoro-4-methoxyphenyl)-7-[(3S)-3-methylpiperazin-1-yl]-1H-isochromen-1-one] | 209 to 211 °C | ≤ 0.1 µM | *** (a fold increase between >1.35 and ≦1.5 is indicated by three stars (***)) | **** (an EC1.5×≦0.3 nM is indicated by four stars (****))
C[C@H]1CN(c2ccc3cc(-c4cccc(O)c4)oc(=O)c3c2)CCN1 [Cpd 44, 3-(3-hydroxyphenyl)-7-[(3S)-3-methylpiperazin-1-yl]-1H-isochromen-1-one] | 256 to 258 °C | 3 to 30 µM | ** (a fold increase between >1.2 and ≦1.35 is indicated by two stars (**)) | 
COc1ccc(-c2cc3ccc(N4CCN[C@@H](C)C4)cc3c(=O)o2)c(F)c1 [Cpd 45, 3-(2-fluoro-4-methoxyphenyl)-7-[(3S)-3-methylpiperazin-1-yl]-1H-isochromen-1-one] | 167 to 168 °C | 0.1 to 0.3 µM | *** (a fold increase between >1.35 and ≦1.5 is indicated by three stars (***)) | 
COc1ccc(-c2cc3ccc(N4CCN[C@@H](C)C4)cc3c(=O)o2)cc1Cl [Cpd 46, 3-(3-chloro-4-methoxyphenyl)-7-[(3S)-3-methylpiperazin-1-yl]-1H-isochromen-1-one] | 187 to 189 °C | 0.1 to 0.3 µM | **** (a fold increase between >1.5 and ≦1.65 is indicated by four stars (****)) | *** (an EC1.5× between >0.3 nM and ≦1 nM is indicated by three stars (***))
COc1cc(-c2cc3ccc(N4CCN[C@@H](C)C4)cc3c(=O)o2)ccc1F [Cpd 47, 3-(4-fluoro-3-methoxyphenyl)-7-[(3S)-3-methylpiperazin-1-yl]-1H-isochromen-1-one] | 118 to 120 °C | 3 to 30 µM | * (A maximum fold increase of ≦1.2 is indicated by one star (*)) | 
